Patent publication US9388468B2, “Truncated CD20 protein, deltaCD20” (ETABLISSEMENT FRANCAIS DU SANG (EFS), priority 2008, dated 2016)

Tested on: RMAS-HHD cells
Test: T cytotoxic response (CTL) induction by peptide vaccination, 51Cr release specific lysis
Type: in vivo
Experimental: The immunogenicity of the ΔCD20a peptides was evaluated by generating CTL on HLA-A2/DR1 and Knock-Out (KO) transgenic mice for H-2 class I and II.
The mice (4 per group) are immunised with pools of 2 or 3 peptides (2 injections at the base of the tail at an 8-day interval) with: 50 μg of each peptide, 100 μg of helper peptide (20 mers peptide from CMV-specific pp65), the whole co-emulsified with incomplete Freud adjuvant.
Seven days after the second immunisation, the spleens of the mice are removed and the splenocytes are re-stimulated in vitro with 4 μg/ml of each peptide separately. On the fifth day of culture, the respondent populations are tested to determine specific cytotoxicity. The cells, with conclusive cytotoxicity, are re-stimulated in vitro at one-week intervals to obtain specific CTLs.
RMAS-HHD cells are used as targets to study cytotoxicity. These target cells are filled with 10 μg/ml of the peptide under test, or a non-relevant control peptide, at 37° C. for 90 minutes and labelled with 100 μCi of 51Cr for 90 minutes, and washed three times. […] After incubation, 50 μl of supernatant is collected, transferred into specific plates (Lumaplate) and the radioactivity is measured in a γ counter. The specific lysis percentage is calculated using the formula: [(experimental 51 Cr release−spontaneous 51 Cr release)/(maximum 51 Cr release−spontaneous 51 Cr release)]×100.

peptide No. 4: ΔCD20-specific peptide overlapping the alternative splicing junction zone, restricted for HLA-A*0201; probably SEQ ID NO: 9 (RMSSLELVI)
mice that developed T cytotoxic response against the peptide (immunisation group A, 4 mice per group, 2 injections of 50 μg of each peptide, splenocytes re-stimulated in vitro): Three out of 4 | CTLs generated by immunisation killing peptide-charged RMAS-HHD targets (targets charged with 10 μg/ml peptide, not cells charged with non-relevant peptide): generates CTLs killing RMAS-HHD targets charged with said peptide
